≈ marks a conversion by molar mass, not a printed value. Calls of active or inactive are those of the source. The rule behind the calls is not given here.
Experiments:
Format in all cases: functional
Candida albicans [1] = assay: Fungicidal activity against Candida albicans MTCC 3018 after 24 hrs by serial dilution method; conditions: MTCC 3018, 24 h
Escherichia coli = assay: Antimicrobial activity against Escherichia coli MTCC 739 after 24 hrs by well diffusion method
Candida albicans [2] = assay: Antimicrobial activity against Candida albicans MTCC 854 after 24 hrs by well diffusion method; conditions: MTCC 854, 24 h
Raoultella planticola = assay: Antimicrobial activity against Klebsiella planticola MTCC 530 after 24 hrs by well diffusion method
Candida albicans [3] = assay: Fungicidal activity against Candida albicans MTCC 3958 after 24 hrs by serial dilution method; conditions: MTCC 3958, 24 h
Candida albicans [4] = assay: Fungicidal activity against Candida albicans MTCC 183 after 24 hrs by serial dilution method; conditions: MTCC 183, 24 h
[Candida] aaseri [5] = Antimicrobial activity against Candida aaseri MTCC 1962 after 24 hrs by well diffusion method; conditions: Yamadazyma aaseri, MTCC 1962, 24 h
Candida albicans [6] = assay: Antimicrobial activity against Candida albicans MTCC 227 after 24 hrs by well diffusion method; conditions: MTCC 227, 24 h
Pichia kudriavzevii [7] = assay: Antimicrobial activity against Candida krusei MTCC 3020 after 24 hrs by well diffusion method; conditions: MTCC 3020, 24 h
[Candida] aaseri [8] = Fungicidal activity against Candida aaseri MTCC 1962 after 24 hrs by serial dilution method; conditions: Yamadazyma aaseri, MTCC 1962, 24 h
Candida parapsilosis [9] = assay: Fungicidal activity against Candida parapsilosis MTCC 1744 after 24 hrs by serial dilution method; conditions: Lodderomyces parapsilosis, MTCC 1744, 24 h
Pichia kudriavzevii [10] = assay: Fungicidal activity against Candida krusei MTCC 3020 after 24 hrs by serial dilution method; conditions: MTCC 3020, 24 h
Micrococcus luteus = assay: Antimicrobial activity against Micrococcus luteus MTCC 2470 after 24 hrs by well diffusion method
Candida albicans [11] = assay: Fungicidal activity against Candida albicans MTCC 3017 after 24 hrs by serial dilution method; conditions: MTCC 3017, 24 h
Candida albicans [12] = assay: Fungicidal activity against Candida albicans MTCC 4748 after 24 hrs by serial dilution method; conditions: MTCC 4748, 24 h
Candida albicans [13] = assay: Fungicidal activity against Candida albicans MTCC 7315 after 24 hrs by serial dilution method; conditions: MTCC 7315, 24 h
Nakaseomyces glabratus [14] = assay: Fungicidal activity against Candida glabrata MTCC 3019 after 24 hrs by serial dilution method; conditions: MTCC 3019, 24 h
Nakaseomyces glabratus [15] = assay: Antimicrobial activity against Candida glabrata MTCC 3019 after 24 hrs by well diffusion method; conditions: MTCC 3019, 24 h
Candida albicans [16] = assay: Antimicrobial activity against Candida albicans MTCC 3018 after 24 hrs by well diffusion method; conditions: MTCC 3018, 24 h
Candida albicans [17] = assay: Antimicrobial activity against Candida albicans MTCC 7315 after 24 hrs by well diffusion method; conditions: MTCC 7315, 24 h
Candida albicans [18] = assay: Antimicrobial activity against Candida albicans MTCC 4748 after 24 hrs by well diffusion method; conditions: MTCC 4748, 24 h
Candida albicans [19] = assay: Fungicidal activity against Candida albicans MTCC 227 after 24 hrs by serial dilution method; conditions: MTCC 227, 24 h
Candida parapsilosis [20] = assay: Antimicrobial activity against Candida parapsilosis MTCC 1744 after 24 hrs by well diffusion method; conditions: Lodderomyces parapsilosis, MTCC 1744, 24 h
Candida albicans [21] = assay: Fungicidal activity against Candida albicans MTCC 854 after 24 hrs by serial dilution method; conditions: MTCC 854, 24 h
Pichia sporocuriosa [22] = assay: Antimicrobial activity against Issatchenkia hanoiensis MTCC 4755 after 24 hrs by well diffusion method; conditions: MTCC 4755, 24 h
Candida albicans [23] = assay: Fungicidal activity against Candida albicans MTCC 1637 after 24 hrs by serial dilution method; conditions: MTCC 1637, 24 h
Pichia sporocuriosa [24] = assay: Fungicidal activity against Issatchenkia hanoiensis MTCC 4755 after 24 hrs by serial dilution method; conditions: MTCC 4755, 24 h
Staphylococcus aureus [25] = assay: Antimicrobial activity against Staphylococcus aureus MLS16 MTCC 2940 after 24 hrs by well diffusion method
Staphylococcus aureus [26] = assay: Antimicrobial activity against Staphylococcus aureus MTCC 96 after 24 hrs by well diffusion method
Pseudomonas aeruginosa = assay: Antimicrobial activity against Pseudomonas aeruginosa MTCC 2453 after 24 hrs by well diffusion method
Candida albicans [27] = assay: Antimicrobial activity against Candida albicans MTCC 1637 after 24 hrs by well diffusion method; conditions: MTCC 1637, 24 h
Bacillus subtilis = assay: Antimicrobial activity against Bacillus subtilis MTCC 121 after 24 hrs by well diffusion method
Candida albicans [28] = assay: Antimicrobial activity against Candida albicans MTCC 183 after 24 hrs by well diffusion method; conditions: MTCC 183, 24 h
Candida albicans [29] = assay: Antimicrobial activity against Candida albicans MTCC 3017 after 24 hrs by well diffusion method; conditions: MTCC 3017, 24 h
Candida albicans [30] = assay: Antimicrobial activity against Candida albicans MTCC 3958 after 24 hrs by well diffusion method; conditions: MTCC 3958, 24 h

`Clc1ccc(COC(Cn2ccnc2)c2ccc(Cl)cc2Cl)c(Cl)c1` (stereo not given) [MICONAZOLE] was tested, and the MFC (Candida albicans [1]) was 15.6 µg/mL (≈ 37.5 µM), the MIC (Escherichia coli) was “inactive” and the MIC (Candida albicans [2]) was 7.8 µg/mL (≈ 18.7 µM). For the same compound, the MIC (Raoultella planticola) was “inactive”, the MFC (Candida albicans [3]) was 7.8 µg/mL (≈ 18.7 µM) and the MFC (Candida albicans [4]) was 15.6 µg/mL (≈ 37.5 µM). For the same compound, the MIC ([Candida] aaseri [5]) was 7.8 µg/mL (≈ 18.7 µM), the MIC (Candida albicans [6]) was 7.8 µg/mL (≈ 18.7 µM) and the MIC (Pichia kudriavzevii [7]) was 7.8 µg/mL (≈ 18.7 µM). It also gave an MFC ([Candida] aaseri [8]) of 7.8 µg/mL (≈ 18.7 µM), an MFC (Candida parapsilosis [9]) of 7.8 µg/mL (≈ 18.7 µM) and an MFC (Pichia kudriavzevii [10]) of 7.8 µg/mL (≈ 18.7 µM). For the same compound, the MIC (Micrococcus luteus) was “inactive”, the MFC (Candida albicans [11]) was 15.6 µg/mL (≈ 37.5 µM) and the MFC (Candida albicans [12]) was 15.6 µg/mL (≈ 37.5 µM). The MFC (Candida albicans [13]) was 7.8 µg/mL (≈ 18.7 µM), the MFC (Nakaseomyces glabratus [14]) was 15.6 µg/mL (≈ 37.5 µM) and the MIC (Nakaseomyces glabratus [15]) was 7.8 µg/mL (≈ 18.7 µM). The MIC (Candida albicans [16]) was 7.8 µg/mL (≈ 18.7 µM), the MIC (Candida albicans [17]) was 7.8 µg/mL (≈ 18.7 µM) and the MIC (Candida albicans [18]) was 7.8 µg/mL (≈ 18.7 µM). For the same compound, the MFC (Candida albicans [19]) was 7.8 µg/mL (≈ 18.7 µM), the MIC (Candida parapsilosis [20]) was 7.8 µg/mL (≈ 18.7 µM) and the MFC (Candida albicans [21]) was 7.8 µg/mL (≈ 18.7 µM). For the same compound, the MIC (Pichia sporocuriosa [22]) was 7.8 µg/mL (≈ 18.7 µM), the MFC (Candida albicans [23]) was 15.6 µg/mL (≈ 37.5 µM) and the MFC (Pichia sporocuriosa [24]) was 7.8 µg/mL (≈ 18.7 µM). The MIC (Staphylococcus aureus [25]) was “inactive”, the MIC (Staphylococcus aureus [26]) was “inactive” and the MIC (Pseudomonas aeruginosa) was “inactive”. For the same compound, the MIC (Candida albicans [27]) was 7.8 µg/mL (≈ 18.7 µM), the MIC (Bacillus subtilis) was “inactive” and the MIC (Candida albicans [28]) was 7.8 µg/mL (≈ 18.7 µM). The MIC (Candida albicans [29]) was 7.8 µg/mL (≈ 18.7 µM) and the MIC (Candida albicans [30]) was 7.8 µg/mL (≈ 18.7 µM).

Source: ChEMBL document CHEMBL3808371, “Design, synthesis and biological evaluation of diaziridinyl quinone isoxazole hybrids” (Eur J Med Chem, 2016)
